This note sets out measurements from patent US20080254003A1, “Differentiation of Human Embryonic Stem Cells and Cardiomyocytes and Cardiomyocyte Progenitors Derived Therefrom” (priority 2004, published 2008).

The test relates to HESC (hES2) co-cultured with END-2 cells. The test can be described thus: HESC-END-2 co-culture, scoring of beating areas. Format: cell-based, human. As to conditions: 10^−4 M ascorbic acid, serum-free HESC-END-2 co-culture, day 12, 12-well plates, n=6. The protocol:
END-2 cells and HESC lines hES2, hES3 and hES4 cells (passage number between 41-84) were cultured as described previously in Reubinoff B E, Pera M F, Fong C Y et al. Embryonic stem cell lines from human blastocysts: somatic differentiation in vitro. Nat Biotechnol 2000; 18:399-404 and Mummery C, Ward-van Oostwaard D, Doevendans P et al. Differentiation of human embryonic stem cells to cardiomyocytes: role of coculture with visceral endoderm-like cells. Circulation 2003; 107:2733-2740. To initiate co-cultures, END-2 cell cultures, treated for 3 hr with mitomycin C (mit.C; 10 μg/ml), replaced mouse embryonic fibroblasts (MEFs) as feeders for hES cells (Mummery et al (2003) and Mummery C L, van Achterberg T A, van den Eijnden-van Raaij A J et al. Visceral-endoderm-like cell lines induce differentiation of murine P19 embryonal carcinoma cells. Differentiation 1991; 46:51-60). As a control HESC were also grown on MEFs for the same period under the same culture conditions. In standard co-cultures, cells were grown in 12-well plates in DMEM containing L-glutamine, insulin-transferrin-selenium, non-essential amino acids, 90 μM β-mercaptoethanol, penicillin/streptomycin, and 20% FCS (Multicell, Wisent Inc, Canada). Co-cultures were then grown for up to 3 weeks and scored for the presence of areas of beating muscle from 5 days onwards. […]

With `O=C1O[C@H]([C@@H](O)CO)C(O)=C1O` [ascorbic acid], the “increase in the number of beating areas compared to untreated serum-free co-cultures” value amounted to 40%.
